Measurements published in US12018024B2, “Compounds and compositions for the treatment of cryptosporidiosis” (Novartis AG, priority 2020, dated 2024).
Read-outs that look alike come from different tables or passages of the source.

What was measured:
Cryptosporidium hominis = test: Cytopathic effect (CPE) based assay, C. hominis-infected HCT-8 cells; type: cell-based
Method: (§1) Human ileocecal colorectal adenocarcinoma cells (HCT-8 [HRT-18] ATCC, CCL-34) were maintained in T-175 flasks (Corning, 431080) in complete growth medium (RPMI-1640 medium (Gibco, 11875) supplemented with 10% heat-inactivated horse serum (Gibco, 26050), 1× MEM non-essential amino acids (Gibco, 11140), 10 mM HEPES (Gibco, 15630), 100 units/mL penicillin, and 100 units/mL streptomycin) at 37° C. and 5% CO2 in a humidified incubator. Cultures were passaged twice weekly using 10 mL of 1× Phosphate-Buffered Saline (PBS) without Ca^2+ and Mg^2+ (Gibco, 20012) for washing and 3-5 mL per T-175 flask of TrypLE Express Enzyme (Gibco, 12604) for dissociation of adherent cells.
Cryptosporidium hominis oocysts were purchased from the Tufts University Cummings School of Veterinary Medicine (courtesy of Dr. Saul Tzipori). C. hominis oocysts were purified from infected gnotobiotic piglet feces and stored in PBS solution containing 0.01% Tween-20, 100 units/mL penicillin and 100 units/mL gentamicin. C. parvum and C. hominis oocysts less than three months old from the date of shedding were used in infection experiments.
(§2) Excystaion and infection: Excystation and infection protocols were developed following established methods with some modifications (Gut & Nelson, 1999, Upton et al., 1995, Bessoff et al., 2013). Briefly, oocysts were primed in 1 mL of 10 mM hydrochloric acid in 1× Hank's Balanced Salt Solution (HBSS) (Gibco, 14025) for 10 minutes with agitation at 1000 rpm, 37° C. on an Eppendorf thermomixer, then washed twice with 1 mL of room temperature non-acidic 1× HBSS by centrifugation at 13,000 rpm for 3 minutes at 25° C. Primed oocysts were further excysted at a concentration of 1×10^6 oocysts/μL in parasite infection medium consisting of a pre-warmed and pre-gassed 1:1 formulation of Leibovitz's L-15 medium (Gibco, 11415) and UltraCULTURE medium (Lonza, 12-725F) supplemented with 2 mM sodium taurocholate (Sigma, 86339-1), 10% heat-inactivated horse serum, and 200 μM L-ascorbic acid (Sigma, 95210) at 25° C. for 10 minutes. HCT-8 monolayer cells were infected with excysted cryptosporidium at a specified multiplicity of infection (MOI). All dilutions for subsequent assays were performed in parasite infection medium without sodium taurocholate. Pre-excysted oocysts were enumerated microscopically using a C-Chip disposable hemocytometer (NanoEnTek, DHC-N01).
Compound and assay plate preparation: Compound powders were dissolved in neat DMSO (Fisher, D4121) to 10 mM and stored at 4° C. prior to dilution into source plates. Dilutions were carried out using a Microlab STAR liquid handler (Hamilton) to obtain compound source plates containing the ten-point or eight-point three fold dilutions starting from 10 mM in duplicates. […]

C. parvum PI(4)K = C. parvum PI(4)K (Cryptosporidium parvum, UniProt Q5CVD3); test: CpPI(4)K enzymatic assay (Transcreener ADP2 FP); type: biochemical
Chain of C. parvum PI(4)K (Q5CVD3 entry or part of it): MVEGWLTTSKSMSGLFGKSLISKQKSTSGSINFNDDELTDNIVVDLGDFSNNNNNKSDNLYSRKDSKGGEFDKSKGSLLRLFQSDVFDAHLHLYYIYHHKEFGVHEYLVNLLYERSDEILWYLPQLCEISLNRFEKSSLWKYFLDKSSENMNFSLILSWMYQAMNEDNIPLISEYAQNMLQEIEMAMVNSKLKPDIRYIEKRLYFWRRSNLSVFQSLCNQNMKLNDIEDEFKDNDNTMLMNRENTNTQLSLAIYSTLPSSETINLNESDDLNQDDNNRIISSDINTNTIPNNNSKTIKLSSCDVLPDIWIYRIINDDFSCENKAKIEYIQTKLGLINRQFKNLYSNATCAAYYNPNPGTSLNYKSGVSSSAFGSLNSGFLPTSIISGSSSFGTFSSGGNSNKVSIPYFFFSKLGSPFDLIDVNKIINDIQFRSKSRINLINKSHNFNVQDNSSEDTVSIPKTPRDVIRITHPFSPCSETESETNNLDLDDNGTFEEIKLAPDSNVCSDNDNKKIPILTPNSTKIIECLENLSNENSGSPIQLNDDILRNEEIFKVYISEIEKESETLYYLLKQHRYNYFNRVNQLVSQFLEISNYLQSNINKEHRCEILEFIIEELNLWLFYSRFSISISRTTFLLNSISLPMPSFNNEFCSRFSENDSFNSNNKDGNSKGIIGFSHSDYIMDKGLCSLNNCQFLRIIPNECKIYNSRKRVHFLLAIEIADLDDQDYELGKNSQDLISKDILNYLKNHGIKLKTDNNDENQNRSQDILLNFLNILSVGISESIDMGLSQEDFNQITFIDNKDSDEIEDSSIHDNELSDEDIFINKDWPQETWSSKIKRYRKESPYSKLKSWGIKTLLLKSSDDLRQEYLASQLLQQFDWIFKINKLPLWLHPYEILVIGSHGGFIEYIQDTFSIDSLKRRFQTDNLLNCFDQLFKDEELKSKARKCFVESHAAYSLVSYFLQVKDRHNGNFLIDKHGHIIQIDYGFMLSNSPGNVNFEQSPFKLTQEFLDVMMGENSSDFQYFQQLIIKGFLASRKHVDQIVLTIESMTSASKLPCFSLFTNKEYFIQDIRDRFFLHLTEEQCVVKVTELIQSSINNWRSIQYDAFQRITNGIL
From the text: Baculovirus expression and purification of C. parvum phosphatidylinositol 4-kinase: The full-length coding sequence of C. parvum PI(4)K (cgd8_4500, 1114 amino acids) was codon-optimized for baculovirus expression, synthesized and cloned into pFastBac-HTb (Invitrogen 10584-027) in frame with the amino-terminal polyhistidine tag using the BamHI and HindIII restriction sites. Recombinant pFastBacHTb-CpPI(4)K bacmid clones were generated by site-specific transposition in E. coli DH10Bac (Invitrogen 10361-012). The bacmid sequence was confirmed by direct DNA sequencing to confirm a lack of mutations across the whole gene. The subsequent steps for bacmid isolation, transfection and selection of the recombinant viruses were performed according to the manufacturer's protocol (Bac-to-Bac system #10359, Invitrogen).
SF9 cells, cultured in […] serum-free medium, were transfected with recombinant baculovirus at 1/200 (v/v) and incubated at 27° C. for 72 h. The pellets were collected after centrifugation and re-suspended in cell lysis buffer (20 mM Tris-HCl, pH 7.5, 300 mM NaCl, 1 mM DTT, 20 mM imidazole, 0.01% Triton X-100 and 1× complete protease inhibitor cocktail without EDTA (Roche Diagnostics 04693116001)). The cell suspension was lysed by sonication and the clarified supernatant was loaded onto a 1 ml HisTrap affinity column (GE Healthcare) pre-equilibrated with buffer A (20 mM Tris-HCl, pH 7.5, 300 mM NaCl, 1 mM DTT, 20 mM Imidazole, and 1× complete protease inhibitor cocktail without EDTA). The column was washed with buffer B (buffer A containing 45 mM imidazole) and the bound protein of interest was eluted with buffer C (buffer A with 90 mM imidazole). The fractions containing CpPI(4)K were pooled, concentrated using Amicon Ultra-15 and purified by a gel-filtration column (Hi-Load 26/60 Superdex 200, GE Healthcare) equilibrated with 20 mM Tris, pH 7.5, 300 mM NaCl, 1 mM DTT and 1× protease inhibitor cocktail without EDTA. The concentrations of the purified protein (Mw 132.39 kda) was determined by using the protein molar extinction coefficient (ε280 nm=133,810 M^−1 cm^−1). Aliquots were flash frozen in liquid nitrogen and immediately stored at −80° C.
PI(4)K enzymatic Assay The CpPI(4)K enzymatic assay was performed as described earlier with a some modifications (McNamara et al., 2013). Briefly, L-α-phosphatidylinositol (Avanti Polar Lipid 840046), dissolved in 3% n-octylglucoside (Roche Diagnostics 10634425001), was used as the lipid substrate for the PI(4)K activity assay. CpPI(4)K was assayed using Transcreener ADP2 FP detection kit (BellBrook 3010) in a black, solid 384-well plate (Corning 3575). The final assay volume was 10 μl and contained 3 nM of the respective CpPI(4)K construct in 10 mM Tris, pH 7.5, 1 mM DTT, 3 μM ATP, 5 mM Mn2+, 0.05% Triton X-100 and 10 μM phosphatidylinositol/octylglucoside. The enzyme reaction was performed for 50 minutes at room temperature and was stopped by adding 10 μl of detection mix containing 1× stop buffer (50 mM HEPES, pH7.5, 400 mM NaCl, 20 mM EDTA, and 0.02% Brij-35), 2 nM AMP Alexa Fluor 633 tracer, and 20 μg ml^−1 ADP antibody. Fluorescence polarization measurements were performed on the Infinite M1000 plate reader (Tecan) with λex=635 nm and λem=680 nm (20-nm bandwidth). IC50 values were calculated using Graphpad Prism software.

H.s. PI(4)K = H.s. PI(4)K (Homo sapiens, UniProt Q9UBF8); test: H.s. PI(4)K IC50; type: biochemical; conditions: read-out: (d) H.s.* PI(4)K IC50
Chain of H.s. PI(4)K (Q9UBF8 2-816 limits assumed): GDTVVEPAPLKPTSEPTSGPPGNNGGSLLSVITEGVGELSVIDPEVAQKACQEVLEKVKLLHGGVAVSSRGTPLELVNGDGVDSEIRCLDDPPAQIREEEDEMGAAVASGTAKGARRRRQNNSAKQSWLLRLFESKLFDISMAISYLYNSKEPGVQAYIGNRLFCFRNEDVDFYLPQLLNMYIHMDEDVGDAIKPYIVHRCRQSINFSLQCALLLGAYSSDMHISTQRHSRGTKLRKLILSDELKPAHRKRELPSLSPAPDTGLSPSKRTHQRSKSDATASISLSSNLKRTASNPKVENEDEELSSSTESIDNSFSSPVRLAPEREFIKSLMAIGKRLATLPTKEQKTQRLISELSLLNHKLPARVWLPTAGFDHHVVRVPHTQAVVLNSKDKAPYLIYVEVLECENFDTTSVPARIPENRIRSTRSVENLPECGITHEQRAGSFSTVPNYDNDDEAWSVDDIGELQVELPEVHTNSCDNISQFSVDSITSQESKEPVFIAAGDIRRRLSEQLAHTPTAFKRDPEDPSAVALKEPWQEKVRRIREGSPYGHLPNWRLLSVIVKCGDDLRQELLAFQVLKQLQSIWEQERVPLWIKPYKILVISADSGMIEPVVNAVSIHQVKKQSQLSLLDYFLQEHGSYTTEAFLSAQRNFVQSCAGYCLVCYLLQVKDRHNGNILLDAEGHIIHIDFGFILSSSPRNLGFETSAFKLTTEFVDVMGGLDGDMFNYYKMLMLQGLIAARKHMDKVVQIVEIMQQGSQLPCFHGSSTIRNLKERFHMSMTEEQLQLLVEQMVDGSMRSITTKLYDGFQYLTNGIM

Cryptosporidium parvum = test: Cytopathic effect (CPE) based assay, C. parvum-infected HCT-8 cells; type: cell-based; conditions: HCT-8, 48 h, read-out: (b) C.p.* CPE EC50 (μM)
Method: as §1
Cryptosporidium parvum oocysts purchased from the Sterling Laboratory, University of Arizona (Iowa isolate) were purified from infected calf feces using discontinuous sucrose and cesium chloride centrifugation gradients and stored in PBS solution containing 0.01% Tween 20, 100 units/mL penicillin and 100 units/mL gentamicin.
as §2
Compound and assay plate preparation: Compound powders were dissolved in neat DMSO (Fisher, D4121) to 10 mM and stored at 4° C. prior to dilution into source plates. Dilutions were carried out using a Microlab STAR liquid handler (Hamilton) to obtain compound source plates containing the ten-point or eight-point three fold dilutions starting from 10 mM in duplicates. Source plates were stored at 4° C. prior to spotting into assay plates. Before administration, all compound source plates were equilibrated to room temperature. A specified volume of compounds from source plate were spotted to assay plate using an Echo Acoustic liquid handler (LABCYTE, 550) so that the final DMSO concentration was less than 0.5%. Each assay plate a specified number of DMSO-treated negative control wells and a well-studied potent active compound at 100 nM as positive control. As a quality control, all positive and negative-control wells were used to calculate a Z′-value and signal to noise ratio (S:N) for each plate.
Cryptosporidium spp are obligate-intracellular parasites that infect intestinal epithelial cells and the host cell is killed upon parasite egress. […] The loss of epithelial cells is due to both rapid parasite invasion/multiplication/egress and also pro-inflammatory immune response (Adams et al., 1994, Griffiths et al., 1994). We have observed a consistent cytopathic effect (CPE) in HCT-8 cells with C. spp infection the loss of viability of the host cells using CellTiter-Glo reagent.
Confluent HCT-8 cells in T-175 flasks were directly infected with excysted oocysts at an MOI (host to parasite) of 1:2 for C. parvum and 1:4 for C. hominis. […]

[1] = HCT-8 host cells, 48 hours treatment, CellTiter-Glo, read-out: (c) C.h.* CPE EC50

Structure (SMILES)	EC50 (Cryptosporidium hominis; HCT-8, 48 h, read-out: (c) C.h.* CPE EC50 (μM)) [µM]	IC50 (C. parvum PI(4)K) [nM]	IC50 (H.s. PI(4)K) [nM]	EC50 (Cryptosporidium parvum) [µM]	EC50 (Cryptosporidium hominis; [1]) [µM]
CNC(=O)c1ccc(-c2cnn3ccc(C(=O)N(C)c4ccc(Cl)c(C(=O)OC)c4)cc23)cc1 [Example 1.16, Methyl 2-chloro-5-(N-methyl-3-(4-(methylcarbamoyl)phenyl)pyrazolo[1,5-a]pyridine-5-carboxamido)benzoate]	< 0.1	< 100	100 to 1000	< 0.1	
COC(=O)c1cc(Cl)ccc1N(C)C(=O)c1ccn2ncc(-c3ccc(C(N)=O)cc3)c2c1 [Example 4.1, Methyl 2-(3-(4-carbamoylphenyl)-N-methylpyrazolo[1,5-a]pyridine-5-carboxamido)-5-chlorobenzoate]		< 100	100 to 1000	< 0.1	< 0.1
CNC(=O)c1ccc(-c2cnn3cnc(C(=O)N(C)c4ccc(Cl)c(C(=O)OC)c4)cc23)cc1 [Example 3.1, Methyl 2-chloro-5-(N-methyl-3-(4-(methylcarbamoyl)phenyl)pyrazolo[1,5-c]pyrimidine-5-carboxamido)benzoate]		< 100	> 1000	0.1 to 1	0.1 to 1
COC(=O)c1cc(N(C)C(=O)c2ccn3ncc(-c4ccc(C(N)=O)cc4)c3c2)ccc1Cl [Example 1.01, Methyl 5-(3-(4-carbamoylphenyl)-N-methylpyrazolo[1,5-a]pyridine-5-carboxamido)-2-chlorobenzoate]		< 100	100 to 1000	< 0.1	< 0.1
